Laboratory results published in ChEMBL document CHEMBL5506023, “Design, Synthesis, and Evaluation of Dihydropyrimidine Derivatives as Selective PDE1 Inhibitors for the Treatment of Liver Fibrosis” (J Med Chem, 2024).
pIC50: −log10 of the molar value. Active and inactive are the calls of the source. The calls are words filed in the database; no cut-off is given here.

How the values were obtained:
LX-2 [1] = assay: Antifibrotic activity against TGF-beta induced human LX-2 cell activation assessed as downregulation of fibronectin expression incubated for 48 hrs by Western blotting analysis; format: functional, cell-based
[2] = Selectivity index, ratio of IC50 for inhibition of PDE1C2 (147 to 531 residues) (unknown origin) using 3H-cGMP as substrate to IC50 for inhibition of PDE9A (181 to 506 residues) (unknown origin) using 3H-cGMP as substrate
Cytochrome P450 2C9 = Cytochrome P450 2C9 (Homo sapiens, UniProt P11712); assay: Inhibition of CYP2C9 in human liver microsomes in presence of NADPH; format: ADME, Microsome
Sequence of Cytochrome P450 2C9 (P11712 whole entry, the tested form may be a part): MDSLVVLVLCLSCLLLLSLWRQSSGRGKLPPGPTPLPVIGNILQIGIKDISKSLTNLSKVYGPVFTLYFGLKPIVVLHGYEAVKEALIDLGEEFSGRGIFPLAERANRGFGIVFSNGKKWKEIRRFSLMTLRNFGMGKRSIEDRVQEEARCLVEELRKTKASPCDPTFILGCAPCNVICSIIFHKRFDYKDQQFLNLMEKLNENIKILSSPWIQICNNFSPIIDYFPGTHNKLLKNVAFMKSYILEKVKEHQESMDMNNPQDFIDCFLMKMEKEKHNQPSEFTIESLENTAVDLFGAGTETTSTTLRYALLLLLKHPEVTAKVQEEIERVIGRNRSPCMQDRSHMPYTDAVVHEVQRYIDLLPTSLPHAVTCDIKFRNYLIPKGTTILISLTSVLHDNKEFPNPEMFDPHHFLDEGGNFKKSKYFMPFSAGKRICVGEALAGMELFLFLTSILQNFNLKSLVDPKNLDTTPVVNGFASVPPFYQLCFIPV

[3] = molecular target: cAMP and cAMP-inhibited cGMP 3',5'-cyclic phosphodiesterase 10A (Homo sapiens, UniProt Q9Y233); assay: Inhibition of PDE10A (449 to 770 residues) (unknown origin) using 3H-cAMP as substrate
Sequence of cAMP and cAMP-inhibited cGMP 3',5'-cyclic phosphodiesterase 10A (Q9Y233 whole entry, the tested form may be a part): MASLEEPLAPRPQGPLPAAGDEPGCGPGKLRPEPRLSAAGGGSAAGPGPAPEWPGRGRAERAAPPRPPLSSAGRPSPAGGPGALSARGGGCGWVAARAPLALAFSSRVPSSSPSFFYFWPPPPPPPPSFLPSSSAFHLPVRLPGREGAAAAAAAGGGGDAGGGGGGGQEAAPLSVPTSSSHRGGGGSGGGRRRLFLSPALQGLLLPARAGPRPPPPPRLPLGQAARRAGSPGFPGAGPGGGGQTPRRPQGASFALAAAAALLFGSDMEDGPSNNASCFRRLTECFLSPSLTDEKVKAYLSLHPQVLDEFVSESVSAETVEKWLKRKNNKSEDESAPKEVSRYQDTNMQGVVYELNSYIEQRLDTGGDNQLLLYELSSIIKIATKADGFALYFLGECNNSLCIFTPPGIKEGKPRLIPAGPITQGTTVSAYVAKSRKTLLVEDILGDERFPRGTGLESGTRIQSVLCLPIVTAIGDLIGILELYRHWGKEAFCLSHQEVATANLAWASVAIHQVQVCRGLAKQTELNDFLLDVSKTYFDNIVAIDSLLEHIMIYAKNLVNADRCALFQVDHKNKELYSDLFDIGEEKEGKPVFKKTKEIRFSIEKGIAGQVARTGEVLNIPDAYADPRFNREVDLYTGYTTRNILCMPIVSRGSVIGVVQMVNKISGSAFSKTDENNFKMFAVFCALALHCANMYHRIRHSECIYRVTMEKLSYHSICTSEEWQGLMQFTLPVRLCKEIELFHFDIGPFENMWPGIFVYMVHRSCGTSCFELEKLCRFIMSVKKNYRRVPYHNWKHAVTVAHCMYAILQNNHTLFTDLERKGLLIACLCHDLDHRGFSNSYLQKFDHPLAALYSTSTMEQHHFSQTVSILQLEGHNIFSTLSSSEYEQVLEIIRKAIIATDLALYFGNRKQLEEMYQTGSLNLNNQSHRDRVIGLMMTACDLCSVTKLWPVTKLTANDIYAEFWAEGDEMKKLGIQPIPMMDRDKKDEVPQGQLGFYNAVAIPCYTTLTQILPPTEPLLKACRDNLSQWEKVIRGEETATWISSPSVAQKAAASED

[4] = MRT in Sprague-Dawley rat at 2.5 mg/kg,iv administration; format: ADME, organism-based; details: in vivo
Rattus norvegicus [5] = assay: Antifibrotic activity against bile duct ligation induced Sprague-Dawley rat liver fibrosis model assessed as reduction in alpha-smooth muscle actin level in liver at 2.5 mg/kg,ip administrated once daily for 21 days by immunofluorescence staining based analysis; format: functional, organism-based; details: time 21.0 day
Rattus norvegicus [6] = assay: Antifibrotic activity against bile duct ligation induced Sprague-Dawley rat liver fibrosis model assessed as downregulation of alpha-SMA expression in liver at 2.5 mg/kg,ip administrated once daily for 21 days by Western blotting analysis; format: functional, organism-based; details: time 21.0 day
[7] = molecular target: Dual specificity calcium/calmodulin-dependent 3',5'-cyclic nucleotide phosphodiesterase 1C (Homo sapiens, UniProt Q14123); assay: Inhibition of PDE1C2 (147 to 531 residues) (unknown origin) using 3H-cGMP as substrate incubated for 15 mins by liquid scintillation counter analysis
Sequence of Dual specificity calcium/calmodulin-dependent 3',5'-cyclic nucleotide phosphodiesterase 1C (Q14123 whole entry, the tested form may be a part): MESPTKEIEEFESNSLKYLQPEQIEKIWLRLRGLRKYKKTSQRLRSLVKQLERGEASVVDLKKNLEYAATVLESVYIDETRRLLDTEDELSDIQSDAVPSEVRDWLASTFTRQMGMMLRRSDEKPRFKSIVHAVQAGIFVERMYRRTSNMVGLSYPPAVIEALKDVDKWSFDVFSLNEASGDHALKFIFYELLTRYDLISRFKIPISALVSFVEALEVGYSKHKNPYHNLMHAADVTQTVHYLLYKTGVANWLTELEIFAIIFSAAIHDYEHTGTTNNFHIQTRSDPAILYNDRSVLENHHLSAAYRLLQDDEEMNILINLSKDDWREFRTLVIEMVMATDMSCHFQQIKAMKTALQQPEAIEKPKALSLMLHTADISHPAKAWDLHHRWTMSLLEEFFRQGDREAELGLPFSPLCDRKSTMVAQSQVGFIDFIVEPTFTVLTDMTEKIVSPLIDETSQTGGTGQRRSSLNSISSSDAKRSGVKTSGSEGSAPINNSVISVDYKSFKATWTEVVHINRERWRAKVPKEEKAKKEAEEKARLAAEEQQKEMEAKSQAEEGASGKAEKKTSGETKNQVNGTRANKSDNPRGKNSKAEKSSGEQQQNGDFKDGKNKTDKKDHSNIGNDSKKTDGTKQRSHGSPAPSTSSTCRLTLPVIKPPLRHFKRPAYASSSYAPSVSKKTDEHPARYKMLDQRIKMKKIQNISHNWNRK

[8] = Selectivity index, ratio of IC50 for inhibition of PDE1C2 (147 to 531 residues) (unknown origin) using 3H-cGMP as substrate to IC50 for inhibition of PDE5A (535 to 860 residues) (unknown origin) using 3H-cGMP as substrate
[9] = molecular target: High affinity cGMP-specific 3',5'-cyclic phosphodiesterase 9A (Homo sapiens, UniProt O76083); assay: Inhibition of PDE9A (181 to 506 residues) (unknown origin) using 3H-cGMP as substrate
Sequence of High affinity cGMP-specific 3',5'-cyclic phosphodiesterase 9A (O76083 whole entry, the tested form may be a part): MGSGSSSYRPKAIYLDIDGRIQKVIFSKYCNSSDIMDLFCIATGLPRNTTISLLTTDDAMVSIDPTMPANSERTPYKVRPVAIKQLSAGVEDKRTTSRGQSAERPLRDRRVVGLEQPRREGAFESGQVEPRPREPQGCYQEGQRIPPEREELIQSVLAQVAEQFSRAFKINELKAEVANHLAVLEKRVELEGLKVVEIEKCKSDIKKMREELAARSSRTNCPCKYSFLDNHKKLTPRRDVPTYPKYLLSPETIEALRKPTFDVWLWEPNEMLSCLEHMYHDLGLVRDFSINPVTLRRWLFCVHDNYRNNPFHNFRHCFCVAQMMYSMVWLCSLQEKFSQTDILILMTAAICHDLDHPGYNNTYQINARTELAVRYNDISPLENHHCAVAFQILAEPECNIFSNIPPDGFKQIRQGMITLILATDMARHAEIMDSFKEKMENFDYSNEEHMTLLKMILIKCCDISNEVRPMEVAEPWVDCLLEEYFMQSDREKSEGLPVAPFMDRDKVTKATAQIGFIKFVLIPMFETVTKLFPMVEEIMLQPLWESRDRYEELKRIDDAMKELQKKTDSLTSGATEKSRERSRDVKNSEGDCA

LX-2 [10] = assay: Antifibrotic activity against TGF-beta induced human LX-2 cell activation assessed as downregulation of alpha-SMA expression incubated for 48 hrs by Western blotting analysis; format: functional, cell-based
[11] = Selectivity index, ratio of IC50 for inhibition of PDE1C2 (147 to 531 residues) (unknown origin) using 3H-cGMP as substrate to IC50 for inhibition of PDE3A (679 to 1087 residues) (unknown origin) using 3H-cAMP as substrate
[12] = Selectivity index, ratio of IC50 for inhibition of PDE1C2 (147 to 531 residues) (unknown origin) using 3H-cGMP as substrate to IC50 for inhibition of PDE4D (86 to 413 residues) (unknown origin) using 3H-cAMP as substrate
Cytochrome P450 1A2 = molecular target: T1, Cytochrome P450 1A2 (Homo sapiens, UniProt P05177); assay: Inhibition of CYP1A2 in human liver microsomes in presence of NADPH; format: ADME, Microsome
T1 sequence (P05177 whole entry): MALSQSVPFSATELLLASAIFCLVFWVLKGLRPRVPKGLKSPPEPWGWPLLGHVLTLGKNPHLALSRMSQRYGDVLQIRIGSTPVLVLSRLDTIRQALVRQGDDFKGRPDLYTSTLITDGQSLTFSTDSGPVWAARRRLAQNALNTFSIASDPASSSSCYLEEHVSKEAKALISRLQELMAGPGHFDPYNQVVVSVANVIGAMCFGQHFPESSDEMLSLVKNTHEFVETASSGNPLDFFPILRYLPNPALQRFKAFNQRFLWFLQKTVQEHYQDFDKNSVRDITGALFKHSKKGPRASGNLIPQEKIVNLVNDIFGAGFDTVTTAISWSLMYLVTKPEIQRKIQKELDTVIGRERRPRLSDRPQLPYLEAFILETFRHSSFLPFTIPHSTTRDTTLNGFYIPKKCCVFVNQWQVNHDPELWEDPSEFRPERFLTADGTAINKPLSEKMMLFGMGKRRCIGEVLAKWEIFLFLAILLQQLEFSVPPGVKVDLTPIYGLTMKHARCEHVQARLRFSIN

LX-2 [13] = assay: Antifibrotic activity against TGF-beta induced human LX-2 cell activation assessed as downregulation of collagen-I expression incubated for 48 hrs by Western blotting analysis; format: functional, cell-based
[14] = Selectivity index, ratio of IC50 for inhibition of PDE1C2 (147 to 531 residues) (unknown origin) using 3H-cGMP as substrate to IC50 for inhibition of PDE2A (580 to 919 residues) (unknown origin) using 3H-cGMP as substrate
[15] = Observed volume of distribution at steady state in Sprague-Dawley rat at 2.5 mg/kg,iv administration; format: ADME, organism-based; details: in vivo, read-out: Vdss
[16] = Selectivity index, ratio of IC50 for inhibition of PDE1C2 (147 to 531 residues) (unknown origin) using 3H-cGMP as substrate to IC50 for inhibition of PDE7A (130 to 482 residues) (unknown origin) using 3H-cAMP as substrate
[17] = molecular target: High affinity 3',5'-cyclic-AMP phosphodiesterase 7A (Homo sapiens, UniProt Q13946); assay: Inhibition of PDE7A (130 to 482 residues) (unknown origin) using 3H-cAMP as substrate at 5000 nM relative to control
Sequence of High affinity 3',5'-cyclic-AMP phosphodiesterase 7A (Q13946 whole entry, the tested form may be a part): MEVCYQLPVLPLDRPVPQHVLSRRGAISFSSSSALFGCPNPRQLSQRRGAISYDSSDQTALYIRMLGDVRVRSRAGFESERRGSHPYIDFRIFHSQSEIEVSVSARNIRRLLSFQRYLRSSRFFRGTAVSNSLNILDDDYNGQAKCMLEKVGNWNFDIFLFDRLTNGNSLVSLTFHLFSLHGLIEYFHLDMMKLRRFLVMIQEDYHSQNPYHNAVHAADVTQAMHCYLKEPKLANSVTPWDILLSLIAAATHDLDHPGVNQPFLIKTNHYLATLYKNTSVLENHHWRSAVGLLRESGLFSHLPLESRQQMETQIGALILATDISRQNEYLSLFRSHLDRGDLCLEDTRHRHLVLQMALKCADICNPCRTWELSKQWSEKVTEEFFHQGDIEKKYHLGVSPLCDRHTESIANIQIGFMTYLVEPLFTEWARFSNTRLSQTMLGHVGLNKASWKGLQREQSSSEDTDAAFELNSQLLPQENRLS

Rattus norvegicus [18] = assay: Antifibrotic activity against bile duct ligation induced Sprague-Dawley rat liver fibrosis model assessed as reduction in collagen deposition at 2.5 mg/kg,ip administrated once daily for 21 days by Masson's trichome staining based analysis; format: functional, organism-based; details: time 21.0 day
LX-2 [19] = assay: Antifibrotic activity against TGF-beta induced human LX-2 cell activation assessed as reduction in cell proliferation at 2.5 to 10 uM incubated for 48 hrs by Edu staining based analysis; format: functional; details: dose 2.5-10 µM
Rattus norvegicus [20] = assay: Antifibrotic activity against bile duct ligation induced Sprague-Dawley rat liver fibrosis model assessed as reduction in ALT level at 2.5 mg/kg,ip administrated once daily for 21 days; format: functional, organism-based; details: time 21.0 day
Rattus norvegicus [21] = assay: Antifibrotic activity against bile duct ligation induced Sprague-Dawley rat liver fibrosis model assessed as reduction in fibrotic lesion at 2.5 mg/kg,ip administrated once daily for 21 days by hematoxylin and eosin staining based analysis; format: functional, organism-based; details: time 21.0 day
Rattus norvegicus [22] = assay: Antifibrotic activity against bile duct ligation induced Sprague-Dawley rat liver fibrosis model assessed as reduction in total bile acid level at 2.5 mg/kg,ip administrated once daily for 21 days; format: functional, organism-based; details: time 21.0 day
[23] = molecular target: 3',5'-cyclic-AMP phosphodiesterase 4D (Homo sapiens, UniProt Q08499); assay: Inhibition of PDE4D (86 to 413 residues) (unknown origin) using 3H-cAMP as substrate
Sequence of 3',5'-cyclic-AMP phosphodiesterase 4D (Q08499 whole entry, the tested form may be a part): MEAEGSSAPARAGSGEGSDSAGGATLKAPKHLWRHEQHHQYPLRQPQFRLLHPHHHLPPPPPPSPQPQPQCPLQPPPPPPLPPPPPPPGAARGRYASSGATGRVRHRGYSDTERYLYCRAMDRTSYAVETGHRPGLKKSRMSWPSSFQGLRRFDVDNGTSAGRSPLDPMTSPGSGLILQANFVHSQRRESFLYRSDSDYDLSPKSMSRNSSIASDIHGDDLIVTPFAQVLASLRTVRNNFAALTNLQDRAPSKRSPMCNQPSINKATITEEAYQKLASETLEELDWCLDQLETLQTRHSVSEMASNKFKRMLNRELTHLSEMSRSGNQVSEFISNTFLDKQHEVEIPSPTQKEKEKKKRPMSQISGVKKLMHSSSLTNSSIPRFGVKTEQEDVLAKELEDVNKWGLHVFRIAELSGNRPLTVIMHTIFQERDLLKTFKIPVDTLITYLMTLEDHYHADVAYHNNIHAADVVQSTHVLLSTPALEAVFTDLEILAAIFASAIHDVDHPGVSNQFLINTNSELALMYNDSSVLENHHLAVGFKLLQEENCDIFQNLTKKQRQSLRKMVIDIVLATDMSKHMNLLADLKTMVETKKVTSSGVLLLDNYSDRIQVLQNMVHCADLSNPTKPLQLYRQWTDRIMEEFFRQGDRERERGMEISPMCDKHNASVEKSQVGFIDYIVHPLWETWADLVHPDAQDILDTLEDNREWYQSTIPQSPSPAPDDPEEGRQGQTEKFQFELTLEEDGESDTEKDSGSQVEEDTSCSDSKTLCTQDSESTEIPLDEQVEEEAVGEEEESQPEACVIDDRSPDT

[24] = Selectivity index, ratio of IC50 for inhibition of PDE1C2 (147 to 531 residues) (unknown origin) using 3H-cGMP as substrate to IC50 for inhibition of PDE8A (480 to 820 residues) (unknown origin) using 3H-cAMP as substrate

**Q.** For `CC1=C(C(=O)OCC2CCCCC2)C(c2ccc(OC(F)F)c(OCC3CC3)c2)N(C(=O)SCc2ccccc2)C(=O)N1` (stereo unspecified), which Activity (LX-2 [1]) is on record?
**A.** The Activity was “Dose-Dependent Effect”.

**Q.** What about the Ratio IC50 [2] of the same compound?
**A.** The Ratio IC50 was 210.

**Q.** What about the pIC50 (Cytochrome P450 2C9) of the same compound?
**A.** Its pIC50 is less than 4.60.

**Q.** What about the pIC50 [3] of the same compound?
**A.** Its pIC50 is 6.22.

**Q.** What about the MRT [4] of the same compound?
**A.** Its MRT is 1.77 h.

**Q.** And the Activity (Rattus norvegicus [5])?
**A.** The Activity was “Active”.

**Q.** What about the Activity (Rattus norvegicus [6]) of the same compound?
**A.** The Activity was “Active”.

**Q.** And the pIC50 [7]?
**A.** Its pIC50 is 8.00.

**Q.** What about the Ratio IC50 [8] of the same compound?
**A.** The Ratio IC50 was 168.

**Q.** What about the pIC50 [9] of the same compound?
**A.** Its pIC50 is 5.68.

**Q.** And the Activity (LX-2 [10])?
**A.** The Activity was “Dose-Dependent Effect”.

**Q.** What about the Ratio IC50 [11] of the same compound?
**A.** Its Ratio IC50 is greater than 500.

**Q.** What about the Ratio IC50 [12] of the same compound?
**A.** Its Ratio IC50 is 205.

**Q.** And the pIC50 (Cytochrome P450 1A2)?
**A.** Its pIC50 is less than 4.60.

**Q.** And the Activity (LX-2 [13])?
**A.** The Activity was “Dose-Dependent Effect”.

**Q.** What about the Ratio IC50 [14] of the same compound?
**A.** The Ratio IC50 was 354.

**Q.** And the Vd [15]?
**A.** The Vd was 0.698 L/kg.

**Q.** And the Ratio IC50 [16]?
**A.** Its Ratio IC50 is greater than 500.

**Q.** And the inhibition [17]?
**A.** Its inhibition is less than 50%.

**Q.** And the Activity (Rattus norvegicus [18])?
**A.** The Activity was “Active”.

**Q.** What about the Activity (LX-2 [19]) of the same compound?
**A.** Its Activity is “Active”.

**Q.** What about the Activity (Rattus norvegicus [20]) of the same compound?
**A.** Its Activity is “Active”.

**Q.** What about the Activity (Rattus norvegicus [21]) of the same compound?
**A.** Its Activity is “Active”.

**Q.** And the Activity (Rattus norvegicus [22])?
**A.** The Activity was “Active”.

**Q.** What about the pIC50 [23] of the same compound?
**A.** Its pIC50 is 5.69.

**Q.** And the Ratio IC50 [24]?
**A.** The Ratio IC50 was 176.
